Laboratory results reported in ChEMBL document CHEMBL4130624, “Optimization of 1,4-Oxazine β-Secretase 1 (BACE1) Inhibitors Toward a Clinical Candidate” (J Med Chem, 2018).
pIC50: −log10 of the molar value. Converted amounts (≈) assume the structure as drawn.

Assays:
Beta-secretase 1 = Beta-secretase 1 (Homo sapiens, UniProt P56817); assay: Inhibition of BACE1 in human SKNBE2 cells transfected with APP695 protein assessed as reduction in amyloid beta (1 to 42) levels after 18 hrs by sandwich alphalisa assay; assay type: cell-based
[1] = Drug metabolism in human liver microsomes at 1 uM after 15 mins in presence of NADPH by HPLC-MS/MS analysis; assay type: ADME, microsome; conditions: read-out: Drug metabolism
[2] = Fraction unbound in mouse plasma at 5 uM after 4.5 hrs by HPLC-MS/MS method based rapid equilibrium dialysis; assay type: ADME, cell-free
HepG2 = assay: Cytotoxicity against human HepG2 cells assessed as effect on cell health indicators after 72 hrs by automated fluorescence microscopy based high content screening based assay; assay type: ADME; conditions: hepg2, 72 h
[3] = Fraction unbound in human plasma at 5 uM after 4.5 hrs by HPLC-MS/MS method based rapid equilibrium dialysis; assay type: ADME, cell-free
[4] = Fraction unbound in dog plasma at 5 uM after 4.5 hrs by HPLC-MS/MS method based rapid equilibrium dialysis; assay type: ADME, cell-free, Canis lupus familiaris
Cytochrome P450 1A2 = Cytochrome P450 1A2 (Homo sapiens, UniProt P05177); assay: Reversible inhibition of recombinant human CYP1A2 by fluorescence-based assay; assay type: ADME
Cytochrome P450 2C8 = Cytochrome P450 2C8 (Homo sapiens, UniProt P10632); assay: Reversible inhibition of recombinant human CYP2C8 by fluorescence-based assay; assay type: ADME
Cytochrome P450 3A4 = Cytochrome P450 3A4 (Homo sapiens, UniProt P08684); assay: Time dependent inhibition of recombinant human CYP3A4 by fluorescence-based assay; assay type: ADME; conditions: recombinant enzyme
[5] = biological target: Kappa-type opioid receptor (Cavia porcellus) (UniProt P41144); assay: Inhibition of Dunkin Hartley guinea pig kappa-type opioid receptor at 10 uM after 5 mins
[6] = biological target: Mu-type opioid receptor (Homo sapiens) (UniProt P35372); assay: Inhibition of recombinant human mu-type opioid receptor at 10 uM after 5 mins
[7] = Volume of distribution at steady state in Swiss mouse at 2.5 mg/kg, iv administered as bolus dose by LC-MS/MS analysis; assay type: ADME, organism-based; conditions: in vivo, read-out: Vdss
Canis familiaris [8] = assay: Volume of distribution at steady state in Beagle dog at 1 mg/kg, iv administered as bolus dose by LC-MS/MS analysis; assay type: ADME, organism-based, Canis lupus familiaris; conditions: in vivo
[9] = Half life in Swiss mouse at 2.5 mg/kg, iv administered as bolus dose by LC-MS/MS analysis; assay type: ADME, organism-based; conditions: in vivo
[10] = Half life in Sprague-Dawley rat at 2.5 mg/kg, iv administered as bolus dose by LC-MS/MS analysis; assay type: ADME, organism-based; conditions: in vivo
[11] = Cmax in Sprague-Dawley rat at 10 mg/kg, po administered as bolus dose by LC-MS/MS analysis; assay type: ADME, organism-based; set-up: dose 10 mg/kg, route oral; conditions: in vivo
[12] = Tmax in Swiss mouse at 10 mg/kg, po administered as bolus dose by LC-MS/MS analysis; assay type: ADME, organism-based; conditions: in vivo
[13] = Tmax in Sprague-Dawley rat at 10 mg/kg, po administered as bolus dose by LC-MS/MS analysis; assay type: ADME, organism-based; conditions: in vivo
[14] = Tmax in Beagle dog at 10 mg/kg, po administered as bolus dose by LC-MS/MS analysis; assay type: ADME, organism-based, Canis lupus familiaris; conditions: in vivo
[15] = AUC (0 to infinity) in Swiss mouse at 10 mg/kg, po administered as bolus dose by LC-MS/MS analysis; assay type: ADME, organism-based; set-up: dose 10 mg/kg, time infinity, route oral; conditions: in vivo
[16] = AUC (0 to infinity) in Sprague-Dawley rat at 10 mg/kg, po administered as bolus dose by LC-MS/MS analysis; assay type: ADME, organism-based; set-up: dose 10 mg/kg, route oral, time infinity; conditions: in vivo
[17] = AUC (0 to infinity) in Beagle dog at 10 mg/kg, po administered as bolus dose by LC-MS/MS analysis; assay type: ADME, organism-based, Canis lupus familiaris; set-up: dose 10 mg/kg, time infinity, route oral; conditions: in vivo
[18] = Oral bioavailability in Swiss mouse at 10 mg/kg administered as bolus dose by LC-MS/MS analysis; assay type: ADME, organism-based; conditions: in vivo
[19] = Oral bioavailability in Sprague-Dawley rat at 10 mg/kg administered as bolus dose by LC-MS/MS analysis; assay type: ADME, organism-based; conditions: in vivo
[20] = Oral bioavailability in Beagle dog at 10 mg/kg administered as bolus dose by LC-MS/MS analysis; assay type: ADME, organism-based, Canis lupus familiaris; conditions: in vivo
Salmonella typhimurium [21] = assay: Mutagenicity in Salmonella typhimurium TAmix up to 500 ug/ml in presence of rat liver S9 fraction by Ames 2 assay; assay type: toxicity, organism-based; conditions: salmonella enterica subsp. enterica serovar typhimurium
Salmonella typhimurium [22] = assay: Mutagenicity in Salmonella typhimurium TAmix up to 500 ug/ml in absence of rat liver S9 fraction by Ames 2 assay; assay type: toxicity, organism-based; conditions: salmonella enterica subsp. enterica serovar typhimurium
TK6 = assay: Genotoxicity in human TK6 cells at 80 ug/ml after 24 hrs in absence of rat liver S9 fraction by micronucleus assay; assay type: toxicity, cell-based; conditions: tk6, 24 h
[23] = Ratio of drug level in kidney to plasma of Sprague-Dawley rat at 10 mg/kg, po; assay type: ADME, organism-based
[24] = Ratio of drug level in liver to plasma of Sprague-Dawley rat at 10 mg/kg, po; assay type: ADME, organism-based
THP-1 = assay: Induction of phospholipidosis in human THP1 cells at 21 uM after […] by ethidiumbromide-based fluorescence assay relative to control; assay type: cell-based; conditions: thp-1, 21 µM
Canis familiaris [25] = assay: Antialzheimer activity in po dosed Beagle dog assessed as reduction in amyloid beta (1 to 40) levels measured after 1 hr post dose by ELISA; assay type: functional, organism-based, Canis lupus familiaris
[26] = AUC (0 to 24 hrs) in male Sprague-Dawley rat at 75 mg/kg, po measured after 1 month repeated dosing by LC-MS/MS analysis; assay type: ADME, organism-based; set-up: time < 24 hr, dose 75 mg/kg, route oral; conditions: in vivo
[27] = AUC (0 to 24 hrs) in female Sprague-Dawley rat at 75 mg/kg, po measured after 1 month repeated dosing by LC-MS/MS analysis; assay type: ADME, organism-based; set-up: time < 24 hr, dose 75 mg/kg, route oral; conditions: in vivo
Canis familiaris [28] = assay: Toxicity in Beagle dog assessed as drug tolerability up to 20 mg/kg, po; assay type: organism-based, Canis lupus familiaris; conditions: in vivo
Canis familiaris [29] = assay: Toxicity in Beagle dog assessed as drug tolerability at 0.63 to 20 mg/kg, po qd for 1 day; assay type: organism-based, Canis lupus familiaris; conditions: in vivo, 24 h
Canis familiaris [30] = assay: Toxicity in Beagle dog assessed as induction of appearance changes at 0.63 to 20 mg/kg, po qd for 1 day; assay type: organism-based, Canis lupus familiaris; conditions: in vivo, 24 h
Canis familiaris [31] = assay: Toxicity in Beagle dog assessed as induction of appearance changes at 0.63 to 20 mg/kg, po qd for 6 days; assay type: organism-based, Canis lupus familiaris; conditions: in vivo, 144 h
[32] = Ratio of fEC50 for antialzheimer activity in po dosed Beagle dog assessed as reduction in amyloid beta (1 to 40) levels to Inhibition of BACE1 (1 to 454 residues) (unknown origin); assay type: functional
[33] = Toxicity in Sprague-Dawley rat administered daily via oral gavage for 1 month; assay type: organism-based; conditions: in vivo
Canis familiaris [34] = assay: Toxicity in beagle dog assessed as induction of reduction in general activity at 70 to 250 mg/kg/day, po qd for 1 week; assay type: organism-based, Canis lupus familiaris; conditions: in vivo, 168 h
Canis familiaris [35] = assay: Toxicity in beagle dog assessed as induction of tremors at 70 to 250 mg/kg/day, po qd for 1 week; assay type: organism-based, Canis lupus familiaris; conditions: in vivo, 168 h
Canis familiaris [36] = assay: Toxicity in male beagle dog assessed as reduction in RBC parameters at 250 mg/kg/day, po qd for 1 month; assay type: organism-based, Canis lupus familiaris; conditions: in vivo
Canis familiaris [37] = assay: Toxicity in male beagle dog assessed as induction of pigmentation at 20 to 250 mg/kg/day, po qd for 1 month; assay type: organism-based, Canis lupus familiaris; conditions: in vivo

Sequence of Cytochrome P450 1A2 (P05177 whole entry): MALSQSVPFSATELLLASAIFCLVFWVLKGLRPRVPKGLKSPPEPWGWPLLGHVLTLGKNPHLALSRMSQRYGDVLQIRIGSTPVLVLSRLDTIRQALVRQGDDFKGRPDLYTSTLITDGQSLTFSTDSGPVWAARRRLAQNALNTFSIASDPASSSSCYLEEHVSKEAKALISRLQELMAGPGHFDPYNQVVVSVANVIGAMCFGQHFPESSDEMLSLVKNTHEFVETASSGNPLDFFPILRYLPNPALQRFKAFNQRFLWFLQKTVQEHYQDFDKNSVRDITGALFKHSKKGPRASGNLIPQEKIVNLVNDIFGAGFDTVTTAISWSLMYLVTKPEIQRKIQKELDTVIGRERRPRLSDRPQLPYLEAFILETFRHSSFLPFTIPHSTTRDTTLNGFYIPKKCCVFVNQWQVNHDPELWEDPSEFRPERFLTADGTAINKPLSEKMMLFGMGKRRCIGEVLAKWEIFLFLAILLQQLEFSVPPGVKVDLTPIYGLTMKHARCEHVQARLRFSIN
Sequence of Cytochrome P450 3A4 (P08684 whole entry): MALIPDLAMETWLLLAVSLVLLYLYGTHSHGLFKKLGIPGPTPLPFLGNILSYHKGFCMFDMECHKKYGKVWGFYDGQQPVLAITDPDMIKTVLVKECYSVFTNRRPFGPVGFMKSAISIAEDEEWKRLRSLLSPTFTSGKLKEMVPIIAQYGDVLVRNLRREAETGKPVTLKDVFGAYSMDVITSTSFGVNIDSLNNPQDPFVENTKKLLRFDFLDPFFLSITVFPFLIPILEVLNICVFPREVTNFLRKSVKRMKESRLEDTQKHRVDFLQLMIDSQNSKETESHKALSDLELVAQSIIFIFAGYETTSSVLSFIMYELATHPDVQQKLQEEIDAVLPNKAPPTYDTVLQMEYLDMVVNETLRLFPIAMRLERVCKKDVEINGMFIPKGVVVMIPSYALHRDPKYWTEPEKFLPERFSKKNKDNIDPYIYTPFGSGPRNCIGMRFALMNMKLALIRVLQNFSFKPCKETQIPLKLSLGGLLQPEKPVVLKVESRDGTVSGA
Sequence of Cytochrome P450 2C8 (P10632 whole entry): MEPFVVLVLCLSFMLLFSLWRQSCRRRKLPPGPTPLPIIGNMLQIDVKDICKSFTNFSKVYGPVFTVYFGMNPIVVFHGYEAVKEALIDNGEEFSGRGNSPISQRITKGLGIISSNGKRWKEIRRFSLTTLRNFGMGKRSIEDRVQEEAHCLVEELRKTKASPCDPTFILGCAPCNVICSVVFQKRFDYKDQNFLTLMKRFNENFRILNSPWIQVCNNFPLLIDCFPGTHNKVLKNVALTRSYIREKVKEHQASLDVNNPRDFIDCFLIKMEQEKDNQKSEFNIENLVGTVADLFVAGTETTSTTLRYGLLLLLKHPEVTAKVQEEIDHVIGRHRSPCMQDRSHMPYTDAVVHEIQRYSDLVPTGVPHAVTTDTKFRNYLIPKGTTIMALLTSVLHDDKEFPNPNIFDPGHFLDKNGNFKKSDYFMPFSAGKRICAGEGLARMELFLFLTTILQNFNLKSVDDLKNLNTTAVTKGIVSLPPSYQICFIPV
Sequence of Beta-secretase 1 (P56817 whole entry): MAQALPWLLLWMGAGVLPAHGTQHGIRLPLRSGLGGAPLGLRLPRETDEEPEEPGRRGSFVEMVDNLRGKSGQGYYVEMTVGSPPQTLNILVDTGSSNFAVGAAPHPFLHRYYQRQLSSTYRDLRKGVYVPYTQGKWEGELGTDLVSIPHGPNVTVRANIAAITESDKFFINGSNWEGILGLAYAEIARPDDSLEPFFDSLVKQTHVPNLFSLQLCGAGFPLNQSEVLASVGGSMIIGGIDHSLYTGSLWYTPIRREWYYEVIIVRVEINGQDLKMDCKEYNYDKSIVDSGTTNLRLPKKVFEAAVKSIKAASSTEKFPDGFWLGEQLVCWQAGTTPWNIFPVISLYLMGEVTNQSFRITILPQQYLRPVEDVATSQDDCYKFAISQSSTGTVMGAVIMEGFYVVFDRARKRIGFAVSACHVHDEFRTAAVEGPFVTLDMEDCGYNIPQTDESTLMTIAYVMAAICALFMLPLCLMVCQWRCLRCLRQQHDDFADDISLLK
Sequence of Kappa-type opioid receptor (Cavia porcellus) (P41144 whole entry): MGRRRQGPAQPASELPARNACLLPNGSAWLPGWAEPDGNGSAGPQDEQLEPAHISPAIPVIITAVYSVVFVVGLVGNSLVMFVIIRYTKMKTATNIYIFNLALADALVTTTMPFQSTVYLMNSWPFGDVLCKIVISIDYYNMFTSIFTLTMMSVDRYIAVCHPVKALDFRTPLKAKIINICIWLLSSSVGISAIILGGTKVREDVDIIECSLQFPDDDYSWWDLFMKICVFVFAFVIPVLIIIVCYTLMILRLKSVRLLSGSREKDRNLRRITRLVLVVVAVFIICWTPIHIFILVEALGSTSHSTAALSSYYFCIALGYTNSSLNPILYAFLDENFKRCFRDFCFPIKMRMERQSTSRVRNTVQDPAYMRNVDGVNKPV
Sequence of Mu-type opioid receptor (Homo sapiens) (P35372 whole entry): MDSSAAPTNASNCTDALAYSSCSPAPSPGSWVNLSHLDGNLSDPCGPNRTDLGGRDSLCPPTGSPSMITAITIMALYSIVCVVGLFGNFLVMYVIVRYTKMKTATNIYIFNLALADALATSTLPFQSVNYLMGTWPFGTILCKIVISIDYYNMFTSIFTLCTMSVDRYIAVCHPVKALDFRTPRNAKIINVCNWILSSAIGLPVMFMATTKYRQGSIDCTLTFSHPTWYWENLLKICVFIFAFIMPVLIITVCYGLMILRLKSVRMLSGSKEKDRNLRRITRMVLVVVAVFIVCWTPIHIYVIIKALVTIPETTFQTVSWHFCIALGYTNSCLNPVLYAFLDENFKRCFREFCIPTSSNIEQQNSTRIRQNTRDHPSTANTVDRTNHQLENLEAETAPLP

## C[C@]1(c2cc(NC(=O)c3ccc(C#N)cn3)ccc2F)N=C(N)CO[C@H]1C(F)(F)F
Beta-secretase 1
  pIC50: 8.22
[1]
  metabolised at 0.25 h, 1 µM: 2%
[2]
  fraction unbound at 4.5 h, 5 µM: 0.23
HepG2
  MTC: 31.5 µM
[3]
  fraction unbound at 4.5 h, 5 µM: 0.36
[4]
  fraction unbound at 4.5 h, 5 µM: 0.26
Cytochrome P450 1A2
  pIC50: < 4.52
Cytochrome P450 2C8
  pIC50: < 4.52
Cytochrome P450 3A4
  TDI: Not Active
[5]
  inhibition: 76%
[6]
  inhibition: 91%
[7]
  Vd: 7.6 L/kg
Canis familiaris [8]
  Vdss: 7.6 L/kg
[9]
  half-life: 1.4 h
[10]
  half-life: 3.9 h
[11]
  Cmax: 160 nM
[12]
  Tmax: 1 h
[13]
  Tmax: 2 h
[14]
  Tmax: 2 h
[15]
  AUC(0-inf): 1330 ng·h/mL
[16]
  AUC(0-inf): 1220 ng·h/mL
[17]
  AUC(0-inf): 15400 ng·h/mL
[18]
  bioavailability: 45%
[19]
  bioavailability: 36%
[20]
  bioavailability: 71%
Salmonella typhimurium [21]
  Activity: Non-Toxic
Salmonella typhimurium [22]
  Activity: Non-Toxic
TK6
  Activity: Non-Toxic
[23]
  Kp: 19
[24]
  Kp: 31
THP-1
  fold change (FC): 2
Canis familiaris [25]
  fEC50: 0.065 µM
Canis familiaris [25]; Canis lupus familiaris
  Activity: Dose-dependent effect
Canis familiaris [25]; Canis lupus familiaris, Beagle, 1 h
  EC50: 0.105 µg/mL (≈ 0.249 µM)
[26]
  AUC at 24 h: 13700 ng·h/mL
[27]
  AUC at 24 h: 38800 ng·h/mL
Canis familiaris [28]
  Activity: Non-Toxic
Canis familiaris [29]
  Activity: Non-Toxic
Canis familiaris [30]
  Activity: Non-Toxic
Canis familiaris [31]
  Activity: Non-Toxic
[32]
  Ratio: 3
[33]
  NOAEL at 1 month: 75 mg/kg
Canis familiaris [34]
  Activity: Toxic
Canis familiaris [35]
  Activity: Toxic
Canis familiaris [36]
  Activity: Toxic
Canis familiaris [37]
  Activity: Non-Toxic
